Data published in patent US7888025B2, “Intestinal folate transporter method” (Albert Einstein College of Medicine of Yeshiva University, priority 2007, dated 2011).
Read-outs that look alike come from different tables or passages of the source. Each block holds one molecule with its values, some of them ahead of it.

Tests used:
G21 (PCFT) [1] = target: T1, G21 (PCFT) (Homo sapiens, UniProt Q96NT5); assay: Inhibition of [3H]folic acid uptake into G21 cRNA-injected Xenopus oocytes; type: cell-based; conditions: 20 μM nonlabeled compound, pH 5.5, 30 min
T1 construct: expressed in transfected cells; host or cells: Xenopus laevis oocytes injected with capped G21 cRNA (pSPT64, SP6)
T1 sequence (Q96NT5 1-459): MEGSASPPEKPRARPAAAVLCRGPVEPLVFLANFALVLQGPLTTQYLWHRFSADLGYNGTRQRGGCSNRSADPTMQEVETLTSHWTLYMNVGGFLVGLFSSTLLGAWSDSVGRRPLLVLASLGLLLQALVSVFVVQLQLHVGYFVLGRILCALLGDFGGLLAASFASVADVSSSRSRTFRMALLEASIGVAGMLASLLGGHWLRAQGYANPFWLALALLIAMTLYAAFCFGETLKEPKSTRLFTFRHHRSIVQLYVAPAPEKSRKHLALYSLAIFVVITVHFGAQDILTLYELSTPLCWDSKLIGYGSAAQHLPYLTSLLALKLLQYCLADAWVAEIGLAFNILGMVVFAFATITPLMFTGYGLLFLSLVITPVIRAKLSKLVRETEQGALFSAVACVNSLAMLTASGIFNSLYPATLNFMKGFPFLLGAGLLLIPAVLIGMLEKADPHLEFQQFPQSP
Procedure: Uptake studies in Xenopus oocytes. […] Radiotracer uptake was determined 3 or 4 days later. […] Uptake was halted by the addition of ice-cold MBS (pH 7.5). Oocytes were washed 10 times thereafter, and solubilized with 10% SDS for measurement of radioactivity. To collapse the pH gradient across the oocyte membrane, seven to 10 oocytes were incubated in MBS (pH 5.5) containing 0, 10, 20, 40, 60 μM FCCP for 20 min, and uptake of transport substrates assessed at pH 5.5.

G21 (PCFT) [2] = target: T1, G21 (PCFT); assay: Uptake of tritiated folates in G21 cRNA-injected Xenopus oocytes; type: cell-based; conditions: for G21-mediated transport activity: pH 7.5, 2 μM tritiated substrate, 30 min
Procedure: Uptake studies in Xenopus oocytes. Defolliculated Xenopus laevis oocytes were prepared as described (Jansen and Akabas, 2006) and injected with 50 nl of water or G21 cRNA (30 ng). Radiotracer uptake was determined 3 or 4 days later. Seven to 10 oocytes were incubated in 500 μl of Modified Barth's Solution (MBS, in mM, 88 NaCl, 2.4 NaHCO3, 2.5 Na pyruvate, 1 KCl, 0.82 MgSO4, 0.41 CaCl2, 0.3 Ca(NO3)2, 15 MES or HEPES) and uptake of tritiated folate substrates assessed at room temperature. Uptake was halted by the addition of ice-cold MBS (pH 7.5). Oocytes were washed 10 times thereafter, and solubilized with 10% SDS for measurement of radioactivity. To collapse the pH gradient across the oocyte membrane, seven to 10 oocytes were incubated in MBS (pH 5.5) containing 0, 10, 20, 40, 60 μM FCCP for 20 min, and uptake of transport substrates assessed at pH 5.5.

G21 (PCFT) [3] = target: T1, G21 (PCFT); assay: Two-electrode voltage-clamp electrophysiology in G21 cRNA-injected Xenopus oocytes; type: cell-based; conditions: for Km: read-out: electrophysiologically determined Km
Procedure: Electrophysiological analyses in Xenopus oocytes. Defolliculated oocytes were injected with 50 nl of water (control) or G21 cRNA (50 ng), and kept at 17° C. in horse serum medium (in mM, 82.5 NaCl, 2.5 KCl, 1 MgCl2, 2.3 CaCl2, 5 HEPES, 5% horse serum, pH 7.5). Electrophysiological recordings were conducted 3-7 days after cRNA injection in buffer (in mM, 90 NaCl, 1 KCl, 1 MgCl2, 1.8 CaCl2, 5 TRIS, 5 MES) as described previously (Jansen and Akabas, 2006). Oocyte holding potential was −80 mV for Km determination. For current-voltage (I-V) relationships, from a −60 mV holding potential step changes in membrane potential were applied for 2 s in 10 mV increments between −100 and 30 mV in the absence and presence of substrate.

PCFT = assay: [3H](6S)5-methylTHF uptake in HeLa cells transiently transfected with mutated PCFT cDNA; type: cell-based, human; conditions: pH 5.5, 37° C., 2 min; for residual transport activity as compared to the wild-type transporter: 0.5 μM [3H](6S)5-methylTHF, mock background subtracted
Excerpt: Analysis of G21 in a family with hereditary folate malabsorption. Members of a family with hereditary folate malabsorption were studied according to a protocol and Informed Consent in the subjects' native language approved by the Albert Einstein College of Medicine IRB (CCI#2006-279). Whole blood was used for isolation of genomic DNA by a Genomic DNA Purification Kit (Gentra Systems, Minneapolis, Minn.) and to generate EBV-transformed human B-lymphoblastoid cell lines in the Einstein Human Genetics Cell Culture Core. Each G21 exon with flanking regions was amplified using Taq DNA polymerase, Q-solution (Qiagen, Valencia, Calif.) and primers listed in Table 4. G21 or RFC cDNA were amplified from lymphoblastoid cells by RT-PCR. PCR products were gel-purified and sequenced in an ABI 3730 DNA Analyzer (Applied Biosystems). The mutated region was verified by sequencing both DNA strands. An expression vector of the mutated G21 in which exon 3 was skipped (GenBank accession number: BC010691) was purchased from Open Biosystems and, along with pcDNA3.1(+)G21 (wild type), was used for an assay of transport function. Western blot analysis on whole cell lysate and cellular localization was performed as described above.
Site-directed mutagenesis. PCFT cDNA was cloned in pCDNA 3.1 (+) and mutations in the coding region were introduced by site-directed mutagenesis using PfuTurbo® DNA polymerase (Stratagene, La Jolla, Calif.) as described previously (Zhao et al., 2000). The entire PCFT coding region in the plasmid was sequenced to verify the presence of the mutation.
Transient transfections and assessment of 5-methylTHF transport. Plasmid concentrations were determined by UV absorption and verified by agarose gel analysis. HeLa cells were seeded and transiently transfected in 20 ml glass scintillation vials (Research Products International Corp., Mt. Prospect, Ill.) and after two days, [^3H]5-methylTHF uptake was assessed (Qiu et al., 2006). EBV-transformed B-lymphoblastoid cells, generated from blood (P6 and P7), were washed twice with, and resuspended in, unbuffered saline (160 mM NaCl, 5 mM KCl, 2 mM MgCl2, 5 mM glucose). Uptake was initiated by injection of the cell suspension into MES-buffered saline (pH 5.5) containing 0.5 μM [^3H]5-methylTHF. Surface binding was assessed by measuring [^3H]5-methylTHF associated with cells at 0° C. and the bound component was subtracted from total uptake.

[4] = 10 μM FCCP, 20 min pre-incubation, extracellular pH 5.5, 2 μM substrate
[5] = changing the pH from 5.5 to 6.5
[6] = increasing the pH from 6.5 to 7.5

inhibitory effect on uptake of 2 μM [3H]folic acid (G21 (PCFT) [1]): did not inhibit
Molecule: C[C@]12CC[C@@H]3c4ccc(OS(=O)(=O)O)cc4CC[C@H]3[C@@H]1CCC2=O [estrone-3-sulfate]

inhibitory effect on uptake of 2 μM [3H]folic acid (G21 (PCFT) [1]): did not inhibit
Molecule: Nc1ccc(C(=O)NCC(=O)O)cc1 [para-aminohippuric acid]

Molecule: C[C@H](CCC(=O)NCCS(=O)(=O)O)[C@H]1CC[C@H]2[C@@H]3[C@H](O)C[C@@H]4C[C@H](O)CC[C@]4(C)[C@H]3C[C@H](O)[C@]12C [taurocholic acid]
inhibitory effect on uptake of 2 μM [3H]folic acid (G21 (PCFT) [1]): did not inhibit

inhibitory effect on uptake of 2 μM [3H]folic acid (G21 (PCFT) [1]): most potent competitor
Molecule: Nc1nc2[nH]cc(CCc3ccc(C(=O)N[C@@H](CCC(=O)O)C(=O)O)cc3)c2c(=O)[nH]1 [pemetrexed]

Molecule: O=C1OC(c2ccc(O)c(S(=O)(=O)O)c2)(c2ccc(O)c(S(=O)(=O)O)c2)c2c(Br)c(Br)c(Br)c(Br)c21 [Bromosulphopthalein]
inhibitory effect on uptake of 2 μM [3H]folic acid (G21 (PCFT) [1]): did not inhibit

Molecule: N#CC(C#N)=NNc1ccc(OC(F)(F)F)cc1 [FCCP, carbonyl cyanide 4-(trifluoromethoxy) phenylhydrazone]
effect on [3H]MTX uptake (G21 (PCFT) [2]; [4]): markedly decreased
effect on [3H]folic acid uptake (G21 (PCFT) [2]; [4]): markedly decreased

inhibitory effect on uptake of 2 μM [3H]folic acid (G21 (PCFT) [1]): did not inhibit
Molecule: C[C@H](CCC(=O)O)[C@H]1CC[C@H]2[C@@H]3[C@H](O)C[C@@H]4C[C@H](O)CC[C@]4(C)[C@H]3C[C@H](O)[C@]12C [cholic acid]

Molecule: CN1c2c(nc(N)[nH]c2=O)NC[C@@H]1CNc1ccc(C(=O)N[C@@H](CCC(=O)O)C(=O)O)cc1 [(6S)5-MTHF, (6S)5-methyltetrahydrofolate]
shift of reversal potential (G21 (PCFT) [3]; [5]): −6 mV
shift of reversal potential (G21 (PCFT) [3]; [6]): −30 mV
Km (G21 (PCFT) [3]; pH 5.5, holding potential −80 mV): 0.53 ± 0.04 µM
Km (G21 (PCFT) [3]; pH 6.5, holding potential −80 mV): 0.78 ± 0.14 µM
inhibitory effect on uptake of 2 μM [3H]folic acid (G21 (PCFT) [1]): comparable to those of (6S)5-FTHF
G21-mediated transport activity (G21 (PCFT) [2]): residual activity

shift of reversal potential (G21 (PCFT) [3]; [5]): −8 mV
shift of reversal potential (G21 (PCFT) [3]; [6]): −36 mV
lowest concentration at which current was detected (G21 (PCFT) [3]; pH 5.5, Vh −80 mV): 0.1 µM
current amplitude larger than (6S)5-MTHF-induced current (G21 (PCFT) [3]; saturating concentrations, same oocyte, pH 5.5): 86±11%
Molecule: CN(Cc1cnc2nc(N)nc(N)c2n1)c1ccc(C(=O)N[C@@H](CCC(=O)O)C(=O)O)cc1 [MTX, methotrexate]
inhibitory effect on uptake of 2 μM [3H]folic acid (G21 (PCFT) [1]): less effective competitor than folic acid

inhibitory effect on uptake of 2 μM [3H]folic acid (G21 (PCFT) [1]): more potent than the unnatural 6R isomer
G21-mediated transport activity (G21 (PCFT) [2]): residual activity
Molecule: Nc1nc2c(c(=O)[nH]1)N(C=O)[C@@H](CNc1ccc(C(=O)N[C@@H](CCC(=O)O)C(=O)O)cc1)CN2 [(6S)5-FTHF, (6S)5-formyltetrahydrofolate]

B1: G147R: human PCFT mutant protein (protein, UniProt Q96NT5 1-459, looked up, variant G147R)
Proton-coupled folate …: MEGSASPPEKPRARPAAAVLCRGPVEPLVFLANFALVLQGPLTTQYLWHRFSADLGYNGTRQRGGCSNRSADPTMQEVETLTSHWTLYMNVGGFLVGLFSSTLLGAWSDSVGRRPLLVLASLGLLLQALVSVFVVQLQLHVGYFVLRRILCALLGDFGGLLAASFASVADVSSSRSRTFRMALLEASIGVAGMLASLLGGHWLRAQGYANPFWLALALLIAMTLYAAFCFGETLKEPKSTRLFTFRHHRSIVQLYVAPAPEKSRKHLALYSLAIFVVITVHFGAQDILTLYELSTPLCWDSKLIGYGSAAQHLPYLTSLLALKLLQYCLADAWVAEIGLAFNILGMVVFAFATITPLMFTGYGLLFLSLVITPVIRAKLSKLVRETEQGALFSAVACVNSLAMLTASGIFNSLYPATLNFMKGFPFLLGAGLLLIPAVLIGMLEKADPHLEFQQFPQSP
residual transport activity as compared to the wild-type transporter (PCFT): 7.0%

B2: P425R: human PCFT mutant protein (protein, UniProt Q96NT5 1-459, looked up, variant P425R)
Proton-coupled folate …: MEGSASPPEKPRARPAAAVLCRGPVEPLVFLANFALVLQGPLTTQYLWHRFSADLGYNGTRQRGGCSNRSADPTMQEVETLTSHWTLYMNVGGFLVGLFSSTLLGAWSDSVGRRPLLVLASLGLLLQALVSVFVVQLQLHVGYFVLGRILCALLGDFGGLLAASFASVADVSSSRSRTFRMALLEASIGVAGMLASLLGGHWLRAQGYANPFWLALALLIAMTLYAAFCFGETLKEPKSTRLFTFRHHRSIVQLYVAPAPEKSRKHLALYSLAIFVVITVHFGAQDILTLYELSTPLCWDSKLIGYGSAAQHLPYLTSLLALKLLQYCLADAWVAEIGLAFNILGMVVFAFATITPLMFTGYGLLFLSLVITPVIRAKLSKLVRETEQGALFSAVACVNSLAMLTASGIFNSLYPATLNFMKGFRFLLGAGLLLIPAVLIGMLEKADPHLEFQQFPQSP
residual transport activity as compared to the wild-type transporter (PCFT): 3.4%

B3: R113S: human PCFT mutant protein (protein, UniProt Q96NT5 1-459, looked up, variant R113S)
Proton-coupled folate …: MEGSASPPEKPRARPAAAVLCRGPVEPLVFLANFALVLQGPLTTQYLWHRFSADLGYNGTRQRGGCSNRSADPTMQEVETLTSHWTLYMNVGGFLVGLFSSTLLGAWSDSVGSRPLLVLASLGLLLQALVSVFVVQLQLHVGYFVLGRILCALLGDFGGLLAASFASVADVSSSRSRTFRMALLEASIGVAGMLASLLGGHWLRAQGYANPFWLALALLIAMTLYAAFCFGETLKEPKSTRLFTFRHHRSIVQLYVAPAPEKSRKHLALYSLAIFVVITVHFGAQDILTLYELSTPLCWDSKLIGYGSAAQHLPYLTSLLALKLLQYCLADAWVAEIGLAFNILGMVVFAFATITPLMFTGYGLLFLSLVITPVIRAKLSKLVRETEQGALFSAVACVNSLAMLTASGIFNSLYPATLNFMKGFPFLLGAGLLLIPAVLIGMLEKADPHLEFQQFPQSP
[3H](6S)5-methylTHF uptake (transport function) (PCFT; 0.5 μM, transiently transfected HeLa cells): essentially no uptake
